Reference: ChEMBL document CHEMBL1140178, “Design, synthesis, and biological evaluation of novel constrained meta-substituted phenyl propanoic acids as peroxisome proliferator-activated receptor alpha and gamma dual agonists” (J Med Chem, 2008)
Activity calls are given as the source filed them. The calls are words filed in the database; no cut-off is given here.

Legend:
[1] = biological target: T1, Peroxisome proliferator-activated receptor gamma (Homo sapiens, UniProt P37231)
T1 sequence (P37231 whole entry): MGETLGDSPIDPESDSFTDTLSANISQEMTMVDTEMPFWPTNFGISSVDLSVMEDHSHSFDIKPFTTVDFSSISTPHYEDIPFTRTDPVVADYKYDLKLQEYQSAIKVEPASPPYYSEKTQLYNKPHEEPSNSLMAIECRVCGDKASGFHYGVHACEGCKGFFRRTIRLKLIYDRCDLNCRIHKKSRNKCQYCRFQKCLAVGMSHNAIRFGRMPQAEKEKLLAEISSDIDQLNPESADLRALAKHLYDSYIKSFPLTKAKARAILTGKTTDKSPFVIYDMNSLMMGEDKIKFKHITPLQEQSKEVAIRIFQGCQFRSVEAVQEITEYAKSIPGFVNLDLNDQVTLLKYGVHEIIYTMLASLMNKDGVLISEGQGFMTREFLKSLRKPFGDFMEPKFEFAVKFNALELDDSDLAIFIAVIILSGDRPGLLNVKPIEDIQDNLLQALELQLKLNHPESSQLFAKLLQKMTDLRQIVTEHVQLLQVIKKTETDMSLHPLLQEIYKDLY
Description: Agonist activity at human PPARgamma ligand binding domain expressed in african green monkey CV1 cells co-transfected with fused Gal4-DBD by transactivation assay

[2] = biological target: T2, Peroxisome proliferator-activated receptor alpha (Homo sapiens) (UniProt Q07869); assay: Agonist activity at human PPARalpha ligand binding domain expressed in african green monkey CV1 cells co-transfected with fused Gal4-DBD by transactivation assay relative to gemfibrozil; assay type: cell-based; conditions: CV-1
T2 sequence (whole entry): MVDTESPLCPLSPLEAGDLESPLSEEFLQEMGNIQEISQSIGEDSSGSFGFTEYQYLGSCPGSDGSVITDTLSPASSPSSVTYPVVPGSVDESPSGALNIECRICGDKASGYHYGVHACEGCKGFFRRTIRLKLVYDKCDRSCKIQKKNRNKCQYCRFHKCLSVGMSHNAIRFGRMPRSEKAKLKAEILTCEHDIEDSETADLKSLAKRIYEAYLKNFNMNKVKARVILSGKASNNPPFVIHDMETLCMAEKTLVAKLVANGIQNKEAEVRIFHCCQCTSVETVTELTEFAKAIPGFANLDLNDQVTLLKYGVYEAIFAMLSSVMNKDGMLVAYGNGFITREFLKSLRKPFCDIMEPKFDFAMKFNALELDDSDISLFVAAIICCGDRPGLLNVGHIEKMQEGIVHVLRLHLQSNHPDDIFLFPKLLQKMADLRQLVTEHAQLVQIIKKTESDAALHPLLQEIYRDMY

[3] = biological target: T3, Peroxisome proliferator-activated receptor alpha (Homo sapiens, UniProt Q07869); assay: (§1) Agonist activity at human PPARalpha ligand binding domain expressed in african green monkey CV1 cells co-transfected with fused Gal4-DBD by transactivation assay; assay type: cell-based, CV-1
T3 sequence (Q07869 whole entry): T2 sequence (whole entry)

Mus musculus [4] = assay: Antihyperglycemic effect in db/db mouse assessed as inhibition of blood glucose at 20 mg/kg, po after 5 days; assay type: functional; conditions: 120 h
[5] = biological target: T2, Peroxisome proliferator-activated receptor alpha (Homo sapiens); assay: as §1; assay type: cell-based; conditions: CV-1
CV-1 = assay: Ratio of EC50 for human PPARalpha ligand binding domain expressed in african green monkey CV1 cells to EC50 for human PPARgamma ligand binding domain expressed in african green monkey CV1 cells; assay type: cell-based
Mus musculus [6] = assay: Antihyperglycemic effect in db/db mouse assessed as inhibition of blood glucose at 3 mg/kg, po after 11 days; assay type: functional; conditions: 264 h
Mus musculus [7] = assay: Toxicity in db/db mouse assessed as weight gain at 3 mg/kg, po after 11 days; assay type: organism-based; parameters: dose 3 mg/kg, route oral; conditions: in vivo, 264 h
Mus musculus [8] = assay: Toxicity in db/db mouse assessed as weight gain at 3 mg/kg, po after 7 days; assay type: organism-based; parameters: dose 3 mg/kg, route oral; conditions: in vivo, 168 h
Mus musculus [9] = assay: Antihyperglycemic effect in db/db mouse assessed as inhibition of blood glucose at 3 mg/kg, po after 4 days; assay type: functional; conditions: 96 h
Mus musculus [10] = assay: Toxicity in db/db mouse assessed as weight gain at 3 mg/kg, po after 4 days; assay type: organism-based; parameters: dose 3 mg/kg, route oral; conditions: in vivo, 96 h
Mus musculus [11] = assay: Antihyperglycemic effect in db/db mouse assessed as inhibition of blood glucose at 3 mg/kg, po after 7 days; assay type: functional; conditions: 168 h
Mus musculus [12] = assay: Toxicity in db/db mouse assessed as weight gain at 0.3 mg/kg, po after 7 days; assay type: organism-based; parameters: dose 0.3 mg/kg, route oral; conditions: in vivo, 168 h
Mus musculus [13] = assay: Antihyperglycemic effect in db/db mouse assessed as inhibition of blood glucose at 0.3 mg/kg, po after 4 days; assay type: functional; conditions: 96 h
Mus musculus [14] = assay: Toxicity in db/db mouse assessed as weight gain at 0.3 mg/kg, po after 11 days; assay type: organism-based; parameters: dose 0.3 mg/kg, route oral; conditions: in vivo, 264 h
Mus musculus [15] = assay: Antihyperglycemic effect in db/db mouse assessed as inhibition of blood glucose at 0.3 mg/kg, po after 7 days; assay type: functional; conditions: 168 h
Mus musculus [16] = assay: Antihyperglycemic effect in db/db mouse assessed as inhibition of blood glucose at 0.3 mg/kg, po after 5 days; assay type: functional; conditions: 120 h
Mus musculus [17] = assay: Antihyperglycemic effect in db/db mouse assessed as inhibition of blood glucose at 3 mg/kg, po after 5 days; assay type: functional; conditions: 120 h
Mus musculus [18] = assay: Toxicity in db/db mouse assessed as weight gain at 0.3 mg/kg, po after 4 days; assay type: organism-based; parameters: dose 0.3 mg/kg, route oral; conditions: in vivo, 96 h
Mus musculus [19] = assay: Antihyperglycemic effect in db/db mouse assessed as inhibition of blood glucose at 0.3 mg/kg, po after 11 days; assay type: functional; conditions: 264 h

Row | EC50 [1] [µM] | Emax [2] [%] | EC50 [3] [µM] | Structure (SMILES) | other results
1 | 1.61 | 165 | 13.1 | CCO[C@@H](Cc1cccc(/C(C)=N/OCc2ccc(OS(C)(=O)=O)cc2)c1)C(=O)O | –
2 | 0.121 | 71 | 2.91 | CCO[C@@H](Cc1cccc(/C(C)=N/OCc2ccccc2)c1)C(=O)O | –
3 | 37.4 | 48 | 30.4 | CCO[C@H](Cc1cccc(-c2cc(-c3ccccc3)on2)c1)C(=O)O | –
4 | 0.74 | 144 | 4.39 | CCO[C@@H](Cc1cccc(C2=NOC(c3ccc(Br)cc3)C2)c1)C(=O)O (stereo partly drawn) | –
5 | 1.89 | 8 | – | CCO[C@H](Cc1cccc(/C(C)=N/OCc2ccccc2)c1)C(=O)O | inhibition in vivo at 20 mg/kg (Mus musculus [4]): 22.3%; Activity [5]: inactive
6 | – | 94 | – | CCO[C@@H](Cc1ccc(OCCc2ccc(OS(C)(=O)=O)cc2)cc1)C(=O)O | –
7 | 6.93 | 104 | 21.6 | CCO[C@@H](Cc1cccc(C2=NOC(Cc3ccccc3)C2)c1)C(=O)O (stereo partly drawn) | Ratio EC50 (CV-1): 3.1
8 | – | 56 | – | CN(CCOc1ccc(CC2SC(=O)NC2=O)cc1)c1ccccn1 (stereo not drawn) | –
9 | – | – | – | COc1ccc(OC(=O)N(CC(=O)O)Cc2ccc(OCCc3nc(-c4ccccc4)oc3C)cc2)cc1 [MURAGLITAZAR] | inhibition in vivo at 3 mg/kg (Mus musculus [6]): 68%; Activity (Mus musculus [7]): 6.3 g; Activity (Mus musculus [8]): 3.6 g; inhibition in vivo at 3 mg/kg (Mus musculus [9]): 53%; Activity (Mus musculus [10]): 2 g; inhibition in vivo at 3 mg/kg (Mus musculus [11]): 67%
10 | 0.175 | 179 | 4.06 | CCO[C@@H](Cc1cccc(/C(C)=N/OCc2ccc(OC)cc2)c1)C(=O)O | –
11 | 2.94 | 58 | 58.8 | CCO[C@@H](Cc1cccc(/C(C)=N/OCc2ccc(O)cc2)c1)C(=O)O | –
12 | 3.19 | 156 | 11.3 | CCO[C@@H](Cc1cccc(C2=NOC(c3ccc(OC)cc3)C2)c1)C(=O)O (stereo partly drawn) | –
13 | 0.036 | 150 | 2.7 | CCO[C@@H](Cc1cccc(/C(C)=N/OCc2ccc(Br)cc2)c1)C(=O)O | –
14 | 41.4 | 6 | – | CCO[C@H](Cc1cccc(C2=NOC(Cc3ccccc3)C2)c1)C(=O)O (stereo partly drawn) | Activity [5]: inactive
15 | 0.139 | 299 | 5.9 | CCO[C@@H](Cc1cccc(/C(C)=N/OCc2ccc(F)cc2)c1)C(=O)O | inhibition in vivo at 3 mg/kg (Mus musculus [6]): 71%; Activity (Mus musculus [12]): 3.6 g; inhibition in vivo at 0.3 mg/kg (Mus musculus [13]): 39%; Activity (Mus musculus [7]): 5.6 g; Activity (Mus musculus [14]): 5.6 g; Activity (Mus musculus [8]): 3.6 g; inhibition in vivo at 3 mg/kg (Mus musculus [9]): 64%; Activity (Mus musculus [10]): 2.1 g; inhibition in vivo at 0.3 mg/kg (Mus musculus [15]): 58%; inhibition in vivo at 0.3 mg/kg (Mus musculus [16]): 40.7%; inhibition in vivo at 3 mg/kg (Mus musculus [17]): 61%; Activity (Mus musculus [18]): 1.9 g; inhibition in vivo at 0.3 mg/kg (Mus musculus [19]): 68%; inhibition in vivo at 3 mg/kg (Mus musculus [11]): 73%
16 | 1.85 | 262 | 3.08 | CCO[C@@H](Cc1cccc(C2=NOC(CCc3ccccc3)C2)c1)C(=O)O (stereo partly drawn) | Ratio EC50 (CV-1): 1.7
17 | 1.16 | 119 | 24.4 | CCO[C@@H](Cc1cccc(C2=NOC(c3ccc(F)cc3)C2)c1)C(=O)O (stereo partly drawn) | –
18 | 0.04 | 139 | 0.674 | CCO[C@@H](Cc1cccc(/C(C)=N/OCc2ccc(I)cc2)c1)C(=O)O | –
19 | 0.026 | 143 | 3.26 | CCO[C@@H](Cc1cccc(/C(C)=N/OCc2ccccc2Cl)c1)C(=O)O | Ratio EC50 (CV-1): 126
20 | 25.1 | 217 | 44.5 | CCO[C@H](Cc1cccc(C2=NOC(CCc3ccccc3)C2)c1)C(=O)O (stereo partly drawn) | Ratio EC50 (CV-1): 1.8
21 | 28.1 | 107 | 37.4 | CCO[C@@H](Cc1cccc(C2=NOC(c3ccc(OS(C)(=O)=O)cc3)C2)c1)C(=O)O (stereo partly drawn) | –
22 | 0.046 | 185 | 2.95 | CCO[C@@H](Cc1cccc(/C(C)=N/OCc2ccc(C(F)(F)F)cc2)c1)C(=O)O | –
23 | 0.606 | 162 | 2.76 | CCO[C@@H](Cc1cccc(C2=NOC(c3ccc(I)cc3)C2)c1)C(=O)O (stereo partly drawn) | –
24 | 0.279 | 137 | 12.1 | CCO[C@@H](Cc1cccc(/C(C)=N/OCc2ccc(C(C)(C)C)cc2)c1)C(=O)O | –
25 | – | 100 | – | Cc1ccc(C)c(OCCCC(C)(C)C(=O)O)c1 | –
26 | 3.29 | 162 | 5.6 | CCO[C@@H](Cc1cccc(-c2cc(-c3ccccc3)on2)c1)C(=O)O | –
27 | 2.73 | 138 | 3.95 | CCO[C@@H](Cc1cccc(C2=NOC(c3ccc(C(C)(C)C)cc3)C2)c1)C(=O)O (stereo partly drawn) | –
28 | 38.6 | 0 | – | CCO[C@@H](Cc1cccc(C2=NOC(c3ccc(O)cc3)C2)c1)C(=O)O (stereo partly drawn) | –
29 | 0.028 | 386 | 7.22 | CCO[C@@H](Cc1cccc(/C(C)=N/OCc2ccc(Cl)cc2)c1)C(=O)O | inhibition in vivo at 3 mg/kg (Mus musculus [6]): 76%; Activity (Mus musculus [12]): 3.7 g; inhibition in vivo at 0.3 mg/kg (Mus musculus [13]): 63%; Activity (Mus musculus [7]): 5.3 g; Activity (Mus musculus [14]): 6 g; Activity (Mus musculus [8]): 3.7 g; inhibition in vivo at 3 mg/kg (Mus musculus [9]): 61%; Activity (Mus musculus [10]): 2.5 g; inhibition in vivo at 0.3 mg/kg (Mus musculus [15]): 60%; inhibition in vivo at 0.3 mg/kg (Mus musculus [16]): 19.3%; inhibition in vivo at 3 mg/kg (Mus musculus [17]): 60.1%; Activity (Mus musculus [18]): 1.9 g; inhibition in vivo at 0.3 mg/kg (Mus musculus [19]): 71%; Ratio EC50 (CV-1): 260; inhibition in vivo at 3 mg/kg (Mus musculus [11]): 73%
30 | 0.816 | 125 | 6.78 | CCO[C@@H](Cc1cccc(C2=NOC(c3ccc(Cl)cc3)C2)c1)C(=O)O (stereo partly drawn) | inhibition in vivo at 3 mg/kg (Mus musculus [17]): 41.7%

Row | Structure (SMILES) | EC50 [1] [µM] | Emax [2] [%] | EC50 [3] [µM] | other results
31 | CCO[C@@H](Cc1cccc(/C(C)=N/OCc2cccc(Cl)c2)c1)C(=O)O | 0.01 | 165 | 2.27 | Ratio EC50 (CV-1): 227
32 | CCO[C@@H](Cc1cccc(C2=NOC(c3ccccc3)C2)c1)C(=O)O (stereo partly drawn) | 0.22 | 78 | 3.99 | inhibition in vivo at 20 mg/kg (Mus musculus [4]): 27%; Ratio EC50 (CV-1): 18
33 | CCO[C@H](Cc1cccc(C2=NOC(c3ccccc3)C2)c1)C(=O)O (stereo partly drawn) | 25.4 | – | – | inhibition in vivo at 20 mg/kg (Mus musculus [4]): 3%; Activity [5]: inactive
